The values that follow come from patent US20060025481A1, “Process for preparation of probucol derivatives and polymorphic forms thereof” (priority 2004, published 2006).

A short description of data set [1]: Hygroscopicity of the crystalline polymorphic forms. In kind it is physicochemical. The following applies: crystalline solid form.
Data set [2] can be described thus: Solid-state stability of the polymorphic forms.
For data set [3] the following is noted: cited from earlier work.

In the case of `CC(C)(Sc1cc(C(C)(C)C)c(O)c(C(C)(C)C)c1)Sc1cc(C(C)(C)C)c(OCC(=O)O)c(C(C)(C)C)c1` [Form A], the hygroscopicity entry in data set [1] is on record as “nonhygroscopic”.
With `CCC(Oc1c(C(C)(C)C)cc(SC(C)(C)Sc2cc(C(C)(C)C)c(O)c(C(C)(C)C)c2)cc1C(C)(C)C)C(=O)O` (stereo not drawn) [Form Al], the “stability of polymorphic form” value in data set [2] is given as “acceptable stability”.
As for `CC(C)(Sc1cc(C(C)(C)C)c(O)c(C(C)(C)C)c1)Sc1cc(C(C)(C)C)c(O)c(C(C)(C)C)c1` [probucol, 4,4′-(isopropylidenedithio) bis[2,6-di-tert-butylphenol]], in data set [3], the solubility in water result is “minimally soluble in water”.
